{"source": "paper PMC9511493", "about": "“2-(Fluoromethoxy)-4′-(S-methanesulfonimidoyl)-1,1′-biphenyl (UCM-1306), an Orally Bioavailable Positive Allosteric Modulator of the Human Dopamine D1 Receptor for Parkinson’s Disease” (Journal of Medicinal Chemistry, 2022)", "key": {"[1]": {"assay": "stability in mouse liver homogenate", "format": "in vitro ADME", "conditions": "remaining compound after 24 h", "procedure": "HSA binding assay. The assessment of compounds binding to HSA was performed by incubating a fixed concentration of the compound with different concentrations of immobilized HSA, using the TRANSILXL HSA Binding Kit (TMP-0210- 2096, Sovicell). An 8-well unit of the TRANSIL assay plate was used for each compound : six wells contain increasing concentrations of HSA immobilized on silica beads suspended in PBS at pH 7.4, and two wells contain buffer only and serve as references to account for nonspecific binding. The TRANSIL assay plate was thawed for 3 h at rt and centrifuged at 750g for 5 s. […] After this time, the plate was centrifuged at 750gfor 10 min, and 50 μL of the supernatants were transferred for analytical quantification by HPLC-MS using selected ion monitoring (SIM). The binding percentage was calculated from the remaining free compound concentration in the supernatant of each well, using the spreadsheet and algorithms supplied with the kit.\nStability in mouse serum. […] Supernatants were then analyzed by HPLC-MS using SIM mode, and quantification was estimated by using the peak area integration normalized with an internal standard.\nStability assay in mouse liver homogenate. Stability of test compounds and reference compound propranolol was determined by incubation in liver homogenates following previously reported procedure. […]"}, "[2]": {"test_system": "C57BL/6J mice", "assay": "novel object recognition test", "format": "in vivo, mouse", "conditions": "1 mg/kg ip; tested at 24 and 96 h", "procedure": "Procedures for animal experiments were conducted in adherence to the European Communities Council Directive (86/609/ECC) and Spanish regulations (BOE 252/34367-91, 2005) for the use of laboratory animals. Experiments were performed on 3 month old male mice with a C57BL/6J background. Eight mice were used for each experimental condition. Mice were maintained on a 12 h light/dark cycle (lights on at 08:00 am), with water and food provided ad libitum. Object recognition test was performed according to a previously reported method.[58] Briefly, mice were first habituated to an empty open field apparatus (40 × 40 × 40 cm) for 5 min. After the habituation session, mice received an ip injection of compound 26 (1 mg/kg) or vehicle (NaCl 0.9%). Twenty minutes later, mice were placed again in the open field, which now included two identical copies of an object (“familiar” object) located in two adjacent corners, and mice were allowed to explore for 10 min (acquisition session). […] The total time of object exploration (defined as the mouse touching an object with its nose or forepaws) was scored, and object recognition memory was calculated by the following discrimination ratio: time exploring the new object—time exploring the familiar object)/total time exploring both objects."}}, "note": "Entries after “also recorded” stand apart in the source; their conditions may differ.", "data": [{"smiles": "CS(=N)(=O)c1ccc(-c2ccccc2OCF)cc1", "note": "(stereo not drawn) [Compound 26, 2-(Fluoromethoxy)-4′-(S-methanesulfonimidoyl)-1,1′-biphenyl]", "values": [{"measurement": "liver homogenate stability (%)", "setting": "[1]", "result": 65, "unit": "%"}, {"measurement": "melting point", "result": "144 to 145", "unit": "°C"}, {"measurement": "memory in the novel object recognition test", "setting": "[2]", "result": "increases memory trace; also recorded: Enhanced memory"}]}]}
